Experiments:
[1] = Penetration of ciclopirox olamine through calf hoof, Franz-Chien cells; type: in vitro ADME; details: solutions in the absence of N-acetylcysteine
Description: Thermosensitive systems used in penetration studies were prepared as it follows:
1.—Dispersion of the Pluronic F127NF to 20% in cold water with magnetic stirring until complete dissolution.
2.- Ciclopirox olamine was incorporated in adequate quantities for concentrations close to saturation (see FIG. 3). […]
In the formulations prepared with partially methylated β-cyclodextrin, it was incorporated into the system at a concentration of 10% prior to the dissolution of triamcinolone acetonide, allowing soluble increasing doses of the drug (see FIG. 3).
Penetration studies were performed with cylindrical thin slices of calf hoof membrane (0.8-1 mm). The bovine hoof samples were placed using two Teflon adapters between the donor and acceptor compartment of vertical Franz-Chien penetration cells. In the receptor compartment, phosphate buffer (pH 7.4) was added and maintained at 37° C. 1 g of the thermosensitive systems was placed into the […]. […] The medium extracted was replaced with the same amount of buffer. The results were normalized by the diffusion surface and the thickness of the calf hoof slides used.

[2] = Ciclopirox olamine solubility in Pluronic F127NF / cyclodextrin systems; type: physicochemical; details: systems with Pluronic F127NF, HPB or MBCD; 25° C.
Description: Dispersions of Pluronic F127NF (0, 10 and 15%) were prepared incorporating hydroxypropyl-β-cyclodextrin or partially methylated β-cyclodextrin at concentrations of 0, 0.5% and 10%. Ciclopirox olamine was added in amounts that far exceeded its aqueous solubility and was stirred at 25° C. for a week. The amount of dissolved ciclopirox was determined spectrophotometrically after filtering the dispersions. Pluronic F127NF dispersions containing 10% of hydroxypropyl-β-cyclodextrin or partially methylated β-cyclodextrin (5% or 10%) and N-acetylcysteine (5-10%) or urea (10-20%) has been studied.

[3] = Triamcinolone acetonide solubility in Pluronic F127NF / cyclodextrin systems; type: physicochemical; details: systems with Pluronic F127NF, HPB or MBCD; 25° C.
Description: Aqueous dispersions of Pluronic F127NF containing a 0.10 and 15%, were prepared by stirring the polymer in water at 4° C. to study the incorporation of the drug. Hydroxypropyl-β-cyclodextrin or partially methylated β-cyclodextrin at concentrations of 0, 0.5% and 10% were also incorporated. Triamcinolone acetonide was added in amounts that far exceeded its aqueous solubility and was stirred at 25° C. for a week. The amount of dissolved triamcinolone was determined spectrophotometrically after filtering the dispersions through a membrane filter of 0.45 micron pore size.

[4] = Penetration of triamcinolone acetonide through calf hoof, Franz-Chien cells; type: in vitro ADME; details: solutions in the absence of N-acetylcysteine
Excerpt: For the preparation of thermosensitive systems used in penetration studies through the nail we proceeded as it follows:
1.—Dispersion of the Pluronic F127NF at 10 or 20% (depending on the formulation) in cold water with magnetic stirring until complete dissolution.
2.—Incorporation of triamcinolone acetonide in quantities for concentrations close to saturation (see FIG. 1). […]
In the formulations containing partially methylated β-cyclodextrin, it was incorporated into the system at concentrations of 10% prior to the dissolution of triamcinolone acetonide in order to increase aqueous concentration of the drug (see FIG. 1).
To perform the penetration studies, cylindrical thin slices of calf hoof membrane (0.8-1 mm) were used. The bovine hoof samples were placed using two Teflon adapters between the donor and acceptor compartment of vertical Franz-Chien penetration cells. In the receptor compartment, phosphate buffer (pH 7.4) was added and maintained at 37° C. 1 g of the thermosensitive systems was placed into the […]. Samples from receptor solution were collected at scheduled time, determining the concentration of triamcinolone acetonide by HPLC. The results were normalized by the diffusion surface and the thickness of the calf hoof slides used.

| Effect of N-acetylcysteine or urea on ciclopirox olamine solubility [2] | Compound | Diffusion and penetration of ciclopirox olamine through calf hoof [1] | Effect of N-acetylcysteine on triamcinolone acetonide solubility [3] | Penetration of triamcinolone acetonide through calf hoof [4] |
| --- | --- | --- | --- | --- |
| significantly influences the solubility | Cc1cc(C2CCCCC2)n(O)c(=O)c1 [Ciclopirox olamine] | did not detect drug diffusion and penetration | – | – |
| – | CC1(C)O[C@@H]2C[C@H]3[C@@H]4CCC5=CC(=O)C=C[C@]5(C)[C@@]4(F)[C@@H](O)C[C@]3(C)[C@]2(C(=O)CO)O1 [Triamcinolone acetonide] | – | did not alter the solubility | did not detect the penetration |
